Data on three compounds can be found in patent EP4775571A1, “LPAR1 ANTAGONIST AND USE THEREOF” (Haisco Pharmaceutical Group Co., Ltd., priority 2023, dated 2025).

One series can be described thus: Caco2 permeability test. It counts as in vitro ADME. As to conditions: human, Caco-2 monolayer, 2 hours at 37°C. The procedure:
In the experiment, a monolayer of Caco-2 cells was used, and incubated in triplicate in a 96-well Transwell plate. A transport buffer solution (HBSS, 10 mM HEPES, pH 7.4 ± 0.05) containing the compound of the present invention (2 µM) or the control compound digoxin (10 µM), nadolol (2 µM) or metoprolol (2 µM) was added to the administration end hole on the apical side or basal side. A DMSO-containing transport buffer solution was added to the corresponding receiving end hole. After incubation for 2 hours at 37°C ± 1°C, the cell plate was removed, and an appropriate amount of samples was taken from both the apical side and basal side and transferred to a new 96-well plate. Subsequently, acetonitrile containing an internal standard was added to precipitate the protein. The samples were analysed using LC MS/MS, and the concentrations of the compound of the present invention and the control compound were determined. Concentration data were used to calculate apparent permeability coefficients for transport from the apical side to the basal side, and from the basal side to the apical side of the cell monolayer, and thus to calculate the efflux ratio. The integrity of the cell monolayer after 2 hours of incubation was evaluated by leakage of Lucifer Yellow.
On the technique in general: Passage across Caco-2 layers is used to estimate intestinal permeability.

In the next series the target is T1, LPAR1 (Homo sapiens, UniProt Q92633).
T1 construct: expressed in transfected cells; host or cells: CHO (CHO-LPA1 cells)
Kind of series: Cell calcium flux assay (antagonist mode, LPA at EC80, FLIPR). It counts as cell-based. The conditions noted are these: CHO-LPA1 cells, calcium flux, grades; read-out: LPAR1 IC50. The procedure: • 1) The test compound was diluted to a 400X stock solution with DMSO in a 384-well plate. • 2) 1 µl of compound solution from step 1 was transferred into 39 ul of assay buffer to prepare a 10X working solution in a 384-well plate using a Bravo automated liquid handling platform. • 3) CHO-LPA1 cells were cultured in F12 medium (10% FBS). • 4) When cells reached 80% confluence, the cells were dissociated using 0.25% trypsin-EDTA. • 5) Cell density was determined and the cells were diluted to 4x10e5/ml using F12 (10% FBS). • 6) 30 µl of the cell suspension was dispensed into a 384-well plate (corning 3764#) using a multidrop automated dispenser, resulting in 12,000 cells per well. The plate was incubated at 37°C with 5% CO2 for 18-20 hours. • 7) The medium was replaced with 25 uL of serum-free medium and incubated overnight. • 8) 10 ul of 3.5X loading dye was added to each well of the cell plate. The plate was incubated in the dark at 37°C with 5% CO2 for 0.5-1 hours. • 9) After incubation, 5 µl of the 10X working solution from step 2 was transferred to the cell plate. • 10) The cell plate was incubated in the dark at 25°C for 15 minutes, and then the calcium signals were read. • 11) A 5X agonist (LPA) working solution in 1X HBSS+20 mM HEPES+0.1% BSA was prepared in a 384-well assay plate (greiner 784075#), with at least 20 µl per well. The agonist concentration used in this assay was determined based on the dose-response curve from a prior agonist mode experiment, with the EC80 value serving as the final agonist concentration. • 12) Data were read and saved using FLIPR at room temperature with the specified settings. • 13) The signal values were plotted against compound concentrations, and the curve fitting was performed and the IC50 values were calculated using nonlinear regression analysis in GraphPad Prism software.
IC50 values are represented by grades A, B, C, and D, where A represents 0 < IC50 ≤ 10 nM, B represents 10 nM < IC50 ≤ 50 nM, C represents 50 nM < IC50 ≤ 100 nM, and D represents IC50 > 100 nM. Table 1 Antagonistic activity of the compounds of the present invention against LPAR1
On the technique in general: A change in cytosolic calcium serves as a functional read-out for many receptors and channels.

Series [1] can be described thus: Pharmacokinetic test in rats. It is filed as in vivo, SD rats. As to conditions: for pharmacokinetic characteristics in rats: conclusion in words; for Vd: read-out: Vdss. How it is done: 3.1. Experimental animals: Male SD rats, about 220 g, 6-8 weeks old, 6 rats/compound, purchased from Chengdu Ddossy Experimental Animals Co., Ltd.
3.2. Experimental design: On the day of the experiment, the SD rats were randomly grouped according to their body weights. The animals were fasted with water available for 12-14 h one day before the administration, and were fed 4 h after the administration. Table 4. Administration information
(§1) Before and after administration, 0.15 mL of blood was taken from the orbit under isoflurane anaesthesia and placed in an EDTAK2 centrifuge tube. The tube was centrifuged at 5000 rpm at 4°C for 10 min, and plasma was collected. Before analysis and detection, all samples were stored at -80°C, and the samples were quantitatively analysed by LC-MS/MS. Table 5. Pharmacokinetic parameters of test compound in plasma of rats

A short description of series [2]: Pharmacokinetic test in mice. It is filed as in vivo, C57 mice. The conditions noted are these: for pharmacokinetic characteristics in mice: conclusion in words; for Vd: read-out: Vdss. The procedure:
2.1 Experimental animals: Male C57 mice, 20-25 g, 6 mice/compound, purchased from Chengdu Ddossy Experimental Animals Co., Ltd.
2.2 Experimental design: On the day of the experiment, the C57 mice were randomly grouped according to their body weights. The animals were fasted with water available for 12-14 h one day before the administration, and were fed 4 h after the administration. Table 2. Administration information
as §1, with “0.06” for “0.15”, “collected. The blood collection time points for the intravenous administration group and oral gavage administration group were: 0 min, 5 min, 15 min, 30 min, 1 h, 2 h, 4 h, 6 h, 8 h, and 24 h.” for “collected.”, “3.” for “5.”, “compounds” for “compound”, “mice” for “rats”

For series [3], the system named is bleomycin (BLM)-induced idiopathic pulmonary fibrosis (IPF). Kind of series: Mouse model of bleomycin (BLM)-induced idiopathic pulmonary fibrosis (IPF). It counts as in vivo, C57BL/6j mice. The text has this: • 1) Screening and grouping: A total of 48 nine-week-old male C57BL/6j mice (experimental animals) were used in this study. Prior to the start of the experiment, the animals were divided into a sham-operated group (Group 1, 8 mice) and a model group (40 mice) based on their body weights. One week after model establishment, the model group animals were further divided into […] subgroups (Groups 2-6, n = 8 per group) based on their body weights. • 2) Animal model establishment: On day 1 of the experiment, the animals were anesthetised with Zoletil (50 mg/kg) and Xylazine (10 mg/kg). Mice in the model group received an intratracheal (i.t.) injection of bleomycin at a dose of 0.66 mg/kg (1 U/kg) in a volume of 50 µL on day 1. Mice in the sham-operated group (Group 1, […]) received an intratracheal injection of normal saline in a volume of 50 µL. • 3) Mode of administration of test compounds: Starting from day 7 of the experiment, the animals were treated as follows. Group 3: compound 22 was administered by oral gavage at a dose of 1 mg/kg at a volume of 10 mL/kg body weight, twice daily. Group 4: compound 22 was administered by oral gavage at a dose of 3 mg/kg at a volume of 10 mL/kg body weight, twice daily. Group 5: BMS-986278 was administered by oral gavage at a dose of 10 mg/kg at a volume of 10 mL/kg body weight, twice daily. Group 6: nintedanib was administered by oral gavage at a dose of 60 mg/kg at a volume of 10 mL/kg body weight, once daily. Sham-operated group (Group 1) and model group (Group 2): the vehicle was administered by oral gavage at a volume of 10 mL/kg body weight, twice daily. • 4) Test indicators: Lung tissues were collected at the study endpoint for pathological evaluation.

Where [4] appears, read: rat, iv, rats, i.v. (1 mg/kg), plasma.
Where [5] appears, read: rat, po, rats, i.g. (3 mg/kg), plasma.
[6] abbreviates: mouse, iv, mice, i.v. (1 mg/kg), plasma.
Where [7] appears, read: mouse, po, mice, i.g. (3 mg/kg), plasma.
The mark [8] stands for this setting: 1 mg/kg oral gavage twice daily for 14 consecutive days.
The mark [9] stands for this setting: 3 mg/kg oral gavage twice daily for 14 consecutive days.
Where [10] appears, read: 3 mg/kg oral gavage twice daily for 14 consecutive days, lung tissue at study endpoint.

T1 sequence (Q92633 whole entry): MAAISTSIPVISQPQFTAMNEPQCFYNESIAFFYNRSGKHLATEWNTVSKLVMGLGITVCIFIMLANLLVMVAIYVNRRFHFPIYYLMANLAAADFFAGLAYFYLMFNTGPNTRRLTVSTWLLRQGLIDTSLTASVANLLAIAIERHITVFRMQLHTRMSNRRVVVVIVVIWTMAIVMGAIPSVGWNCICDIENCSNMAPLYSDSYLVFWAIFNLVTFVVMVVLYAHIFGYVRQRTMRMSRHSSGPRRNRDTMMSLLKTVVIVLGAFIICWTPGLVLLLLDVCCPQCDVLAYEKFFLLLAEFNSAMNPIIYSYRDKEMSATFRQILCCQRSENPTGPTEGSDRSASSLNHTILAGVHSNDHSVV

As to `C=C1CC(OC(=O)NCc2c(-c3ccc(O[C@H]4CCC[C@H](C(=O)O)C4)c(C)n3)nnn2C)C1` [Compound 26], the efflux ratio – broadly, a quotient of directional permeabilities that is used to spot active efflux – at 2 h, 2 µM in the series “Caco2 permeability test” (pH 7.4) was 6.79. Besides, in “Caco2 permeability test” (pH 7.4, read-out: Average apparent permeability coefficient A-B), the Papp A→B at 2 h, 2 µM amounted to 43.1 nm/s. Besides, the Papp B→A at 2 h, 2 µM in the series “Caco2 permeability test” (pH 7.4, read-out: Average apparent permeability coefficient B-A) was found to be 292 nm/s. Also, at LPAR1, the IC50 (as a rule, the concentration that gives 50% inhibition) was less than 0.01 µM. Also, the “pharmacokinetic characteristics in rats” value in series [1] is given as “good pharmacokinetic characteristics”. The AUC(0-t) (usually the area under the concentration-time curve up to a stated or last time point) in series [1] (setting [4]) was 1.87 ± 0.246 µg·h/mL; in series [1] (setting [5]), 2.88 ± 0.913 µg·h/mL; in series [2] (setting [6]), 1.58 ± 0.05 µg·h/mL; in series [2] (setting [7]), 2.29 ± 0.102 µg·h/mL. The clearance (usually the rate of elimination divided by the concentration) was 0.535 ± 0.072 L/h/kg in series [1] (setting [4]) and 0.618 ± 0.0312 L/h/kg in series [2] (setting [6]). The Vd turned out to be 1.21 ± 0.5 L/kg in series [1] (setting [4]) and 2.83 ± 0.53 L/kg in series [2] (setting [6]). Besides, the “C0 or Cmax” value in series [1] (rats, i.g. (3 mg/kg), plasma) amounted to 1.144 ± 0.145 µg/mL; in series [1] (rats, i.v. (1 mg/kg), plasma), 2.745 ± 0.354 µg/mL; in series [2] (mice, i.g. (3 mg/kg), plasma) it was 0.659 ± 0.055 µg/mL; in series [2] (mice, i.v. (1 mg/kg), plasma), 2.268 ± 0.193 µg/mL. Also, the “pharmacokinetic characteristics in mice” value in series [2] was “excellent pharmacokinetic characteristics”.

With `C=C1CC(N(C)C(=O)OCc2c(-c3ccc(OCC(C)(C)CC(=O)O)c(C)n3)nnn2C)C1` [Compound 29], at LPAR1, the IC50 is less than 0.01 µM. For the same compound, the “pharmacokinetic characteristics in rats” value in series [1] is “good pharmacokinetic characteristics”. In addition, the AUC(0-t) in series [1] (setting [4]) is 1.09 ± 0.208 µg·h/mL; in series [1] (setting [5]), 2.54 ± 0.679 µg·h/mL. The clearance in series [1] (setting [4]) is 0.9 ± 0.162 L/h/kg. The Vd in series [1] (setting [4]) was determined as 3.53 ± 1.6 L/kg. Moreover, the “C0 or Cmax” value in series [1] (rats, i.g. (3 mg/kg), plasma) stood at 0.739 ± 0.029 µg/mL; in series [1] (rats, i.v. (1 mg/kg), plasma) it was 2.324 ± 0.17 µg/mL.

With `Cc1nc(-c2nnn(C)c2CNC(=O)OC2CC(=C(F)F)C2)ccc1O[C@H]1CCC[C@H](C(=O)O)C1` (stereo partly drawn) [Compound 22], on LPAR1, the concentration for half-maximal inhibition (IC50) is less than 0.01 µM. Also, the “Modified Ashcroft score compared with the vehicle-treated model group” value in series [3] (setting [8]) and in series [3] (setting [9]) was “significantly reduced” each time. For the same compound, the “fibrotic area in lung tissues compared with the vehicle-treated model group” value in series [3] (setting [8]) and in series [3] (setting [9]) was “significantly reduced” throughout. Further, in series [3] (setting [10]), the “Modified Ashcroft score” value is “less than 4”. Further, the fibrotic area result in series [3] (setting [10]) is recorded as “less than 20%”. Moreover, in series [3] (dose of 1 mg/kg), the “efficacy relative to BMS-986278 (10 mg/kg) and nintedanib (60 mg/kg)” value was “comparable to that of BMS-986278 (10 mg/kg) and nintedanib (60 mg/kg)”. In addition, the “efficacy relative to BMS-986278 and nintedanib” value in series [3] (dose of 3 mg/kg) was “superior efficacy to both BMS-986278 and nintedanib”. Further, the “pharmacokinetic characteristics in rats” value in series [1] is listed as “good pharmacokinetic characteristics”. Further, the AUC(0-t) stood at 1.79 ± 0.321 µg·h/mL in series [1] (setting [4]), 6.71 ± 0.652 µg·h/mL in series [1] (setting [5]), 1.57 ± 0.074 µg·h/mL in series [2] (setting [6]) and 5.61 ± 1.41 µg·h/mL in series [2] (setting [7]). The clearance in series [1] (setting [4]) turned out to be 0.567 ± 0.102 L/h/kg; in series [2] (setting [6]) it was 0.624 ± 0.033 L/h/kg. The figures for the Vd in series [1] (setting [4]) and in series [2] (setting [6]) were 1.21 ± 0.17 L/kg and 2.77 ± 0.16 L/kg, respectively. Besides, the bioavailability (usually the share of a dose that reaches the circulation, judged against a reference dose that is usually intravenous) in series [1] (rat, plasma, po, rats, i.g. (3 mg/kg)) was no less than 98%; in series [2] (mouse, plasma, po, mice, i.g. (3 mg/kg)), no less than 98%. Also, the “C0 or Cmax” value is 1.63 ± 0.162 µg/mL in series [1] (rats, i.g. (3 mg/kg), plasma); 2.428 ± 0.221 µg/mL in series [1] (rats, i.v. (1 mg/kg), plasma); 1.788 ± 0.18 µg/mL in series [2] (mice, i.g. (3 mg/kg), plasma); 1.537 ± 0.29 µg/mL in series [2] (mice, i.v. (1 mg/kg), plasma). Also, in series [2], the “pharmacokinetic characteristics in mice” value is reported as “excellent pharmacokinetic characteristics”.
